Data on eight molecules can be found in ChEMBL document CHEMBL5370597, “Fungal Duel between Penicillium brasilianum and Aspergillus nomius Results in Dual Induction of Miktospiromide A and Kitrinomycin A” (J Nat Prod, 2023).

≈ marks a conversion by molar mass, not a printed value. Calls of active or inactive are those of the source. The calls are words filed in the database; no cut-off is given here. Bounds are passed on as bounds.

One data set relates to Giardia intestinalis. As to the kind of experiment: Anti-protozoal activity against Giardia duodenalis 713 assessed as inhibition of protozoal growth measured after 72 hrs under anaerobic conditions. The data set is classed as functional.
For another data set, the system named is DU-145. As to the kind of experiment: Cytotoxicity against human DU-145 cells incubated for 72 hrs by resazurin staining based microplate reader assay. The format is functional. A general note: Resazurin is reduced to fluorescent resorufin, in cell work by metabolically active cells.
The subject of another data set is MCF7. Put plainly: Cytotoxicity against human MCF7 cells incubated for 72 hrs by resazurin staining based microplate reader assay. The data set is classed as functional.
Another data set relates to NFF. Put plainly: Cytotoxicity against human NFF cells incubated for 72 hrs by resazurin staining based microplate reader assay. The data set is classed as toxicity, cell-based.
A further data set concerns Tritrichomonas foetus. As to the kind of experiment: Antiprotozoal activity against Tritrichomonas foetus KV-1 strain assessed as inhibition of protozoal growth measured after 72 hrs under anaerobic conditions. The format is functional.
Another data set concerns Staphylococcus aureus. Put plainly: Antibacterial activity against Staphylococcus aureus ATCC 25923 assessed as bacterial growth inhibition incubated for 48 hrs by resazurin staining based microplate reader assay. The format is functional.
Another data set relates to Bacillus subtilis. As to the kind of experiment: Antibacterial activity against Bacillus subtilis ATCC 6633 assessed as bacterial growth inhibition incubated for 48 hrs by resazurin staining based microplate reader assay. The format is functional.
For a further data set, the system named is Escherichia coli. As to the kind of experiment: Antibacterial activity against Escherichia coli ATCC 25922 assessed as bacterial growth inhibition incubated for 48 hrs by resazurin staining based microplate reader assay. The format is functional.
The test system of another data set is Candida albicans. Put plainly: Antifungal activity against Candida albicans ATCC 10231 assessed as fungal growth inhibition incubated for 48 hrs by bromocresol green staining based microplate reader assay. The format is functional.
In the next data set the test system is Saccharomyces cerevisiae. As to the kind of experiment: Antifungal activity against Saccharomyces cerevisiae ATCC 9763 assessed as fungal growth inhibition incubated for 48 hrs by bromocresol green staining based microplate reader assay. The format is functional.
Data set [1] can be described thus: Cytotoxicity against mouse NS-1 cells incubated for 72 hrs by resazurin staining based microplate reader assay. The format is functional.
Data set [2] concerns Penicillium brasilianum. As to the kind of experiment: Antifungal activity against Penicillium brasilianum MST-FP1927 assessed as change in morphology at 20 ug by disc diffusion assay. The data set is classed as functional, organism-based. Particulars: dose 20.0 µg.
Data set [3] has as its system Penicillium brasilianum. As to the kind of experiment: Antifungal activity against Penicillium brasilianum MST-FP1927 assessed as fungal growth rate at 20 ug by disc diffusion assay. The format is functional, organism-based. Particulars: dose 20.0 µg. (In agar diffusion tests the substance spreads into inoculated agar from a disc or well.)
Data set [4] deals with Aspergillus nomiae. Put plainly: Antifungal activity against Aspergillus nomius MST-FP2004 assessed as fungal growth rate at 20 ug by disc diffusion assay. The data set is classed as functional, organism-based. Particulars: dose 20.0 µg.
Data set [5] concerns Aspergillus nomiae. Put plainly: Antifungal activity against Aspergillus nomius MST-FP2004 assessed as change in morphology at 20 ug by disc diffusion assay. The data set is classed as functional, organism-based. As to conditions: dose 20.0 µg.
For data set [6], the system named is Aspergillus nomiae. As to the kind of experiment: Antifungal activity against Aspergillus nomius MST-FP2004 assessed as reduction in growth diameter at 20 ug by disc diffusion assay relative to control. The format is functional. Also noted: scale not given: the % may be the effect or the level left. Particulars: dose 20 µg.

Consider `Cc1ncc([N+](=O)[O-])n1CCO` [METRONIDAZOLE], for which, in the data set on Giardia intestinalis, the LD99 was 9.1 µM.
Take `CN[C@@H]1C[C@H]2O[C@@](C)([C@@H]1OC)n1c3ccccc3c3c4c(c5c6ccccc6n2c5c31)C(=O)NC4` [STAUROSPORINE]: the LD99 is 3.4 µM in the data set with DU-145, 54 µM in the data set with MCF7, 0.09 µM in the data set with NFF and 1.2 µM in the data set on Tritrichomonas foetus.
For `CCCCCCC/C=C/C1=CC(=O)[C@]2(O1)C(=O)N[C@@](C)(O)[C@H]2O`, the MIC was 50 µg/mL (≈ 155 µM) in the data set with Staphylococcus aureus; 25 µg/mL (≈ 77.3 µM) in the data set with Bacillus subtilis; greater than 100 µg/mL with Escherichia coli; greater than 100 µg/mL with Candida albicans; greater than 100 µg/mL with Saccharomyces cerevisiae. Moreover, the LD99 in data set [1] was 77 µM; in the data set with DU-145, 39 µM; in the data set on MCF7, greater than 100 µM; with NFF it was greater than 100 µM; in the data set on Tritrichomonas foetus, greater than 100 µM; in the data set with Giardia intestinalis it was 39 µM. Also, the result in the data set on Penicillium brasilianum [2] and in the data set on Penicillium brasilianum [3] was inactive.
In the case of `COC(=O)c1oc(=O)c2c(O)c3c(O)c(C(C)=O)oc3cc2c1O`, the MIC with Staphylococcus aureus was greater than 100 µg/mL; in the data set on Bacillus subtilis, 42 µg/mL (≈ 126 µM); with Escherichia coli it was greater than 100 µg/mL; in the data set on Candida albicans, greater than 100 µg/mL; with Saccharomyces cerevisiae, greater than 100 µg/mL. Also, the LD99 in [1] is 7.8 µM; in the data set with DU-145, greater than 100 µM; in the data set with MCF7, greater than 100 µM; in the data set on NFF, greater than 100 µM; with Tritrichomonas foetus, 4.8 µM; in the data set with Giardia intestinalis, 37 µM. In addition, the result with Aspergillus nomiae [4] and in the data set with Aspergillus nomiae [5] was inactive. For the same molecule, the Activity in the data set with Aspergillus nomiae [6] was roughly 7%.
`C[C@@H]1[C@H](O)[C@@H](C)/C=C/C=C/C=C/C=C/C=C/C=C/C=C/[C@H](O[C@@H]2O[C@H](C)[C@@H](O)[C@H](N)[C@@H]2O)C[C@@H]2O[C@](O)(C[C@@H](O)C[C@@H](O)[C@H](O)CC[C@@H](O)C[C@@H](O)CC(=O)O[C@H]1C)C[C@H](O)[C@H]2C(=O)O` [AMPHOTERICIN B]: the minimum inhibitory concentration (MIC) with Candida albicans came to 0.09 µg/mL (≈ 0.0974 µM); in the data set with Saccharomyces cerevisiae, 0.28 µg/mL (≈ 0.303 µM).
Regarding `CO[C@@]12[C@H](COC(N)=O)C3=C(C(=O)C(C)=C(N)C3=O)N1C[C@@H]1N[C@@H]12` [MITOMYCIN], the LD99 in [1] came to 0.93 µM.
Turning to `COC(=O)c1oc(=O)c2c(O)c(C(=O)O)c(O)cc2c1O`, the minimal inhibitory concentration (MIC) in the data set with Staphylococcus aureus, with Bacillus subtilis, in the data set on Escherichia coli, with Candida albicans and in the data set on Saccharomyces cerevisiae was greater than 100 µg/mL each time. The LD99 (in [1]; in the data set on DU-145; in the data set with MCF7; in the data set with NFF; in the data set on Tritrichomonas foetus; in the data set with Giardia intestinalis) was greater than 100 µM each time. In addition, the outcome in the data set on Aspergillus nomiae [4] and in the data set on Aspergillus nomiae [5] was inactive.
Take GENTAMICIN: the MIC in the data set with Staphylococcus aureus turned out to be 0.38 µg/mL; with Bacillus subtilis, 0.38 µg/mL; in the data set on Escherichia coli, 0.81 µg/mL.

For orientation: MIC means the lowest concentration that inhibits growth of the organism.
